Data from a melting point compilation (Tetko et al.; mined from patent text by program, amines drawn as free bases though some values may be those of a salt).

SMILES	melting point [°C]
CS(=O)(=O)Nc1cc(Cl)c(Cl)cc1Cl	144 to 145
COc1ccccc1Oc1c(NS(=O)(=O)c2ccc(C(C)(C)C)cc2)nc(-c2ncccn2)nc1OCCOc1ccc(C(C)=O)cc1	169 to 172
C[C@@H](CN)CCC[C@@H](C)[C@H]1CC[C@H]2[C@@H]3CC=C4C[C@@H](O)CC[C@]4(C)[C@H]3CC[C@]12C	150 to 152
COc1cc(O)c(CC=C(C)C)c(O)c1C(=O)C=Cc1ccc(O)cc1	172
Clc1ncccc1-c1nnsc1-c1cccnc1Cl	146 to 148
CCn1cc(C(=O)O)c(=O)c2c(F)c(F)c(F)c(F)c21	229 to 230
COc1ccc2c(c1)sc1nc(C(O)C3CC3)cn12 (stereo not drawn)	151 to 153
CC1NC(=O)c2ccccc2O1 (stereo not drawn)	124 to 126
Cn1cc(Oc2cc(Cl)cc(Cl)c2)c(=O)c(-c2cccc(C(F)(F)F)c2)c1	128 to 130
COc1cc2nc(CSc3ncnc4[nH]cnc34)n(-c3ccccc3Cl)c(=O)c2cc1OC	160 to 180
COCC(=O)N(C)c1ccc(NC(=O)[C@H]2C[C@@H](O)CN2C(=O)Nc2ccc(Cl)cc2)cc1	84
CS(=O)(=O)c1ccc(-c2cccn3nc(N)nc23)cc1	236 to 239
CC(=O)Oc1ccc(C=O)cc1Cl	33 to 35
CSc1nccc(C(C#N)C(=O)c2ccccc2)n1 (stereo not drawn)	163 to 164
O=c1ccc(-c2ccc(Cl)cc2)n[nH]1	175 to 176
C(#Cc1ccsc1)c1cccnc1	62
COc1ccc(C(=O)c2csc(S(N)(=O)=O)c2)cc1	173 to 175
CC(C)n1nc(-c2c(OCC(=O)N(C)C)nc(N)nc2-c2ccccc2)ccc1=O	133 to 136
COc1ccc([C@H]2Cc3c(cccc3C(F)(F)F)NC(=O)[C@H]2O)cc1 (relative stereo)	205 to 208
CC(C)=NN=C(c1ccc(Cl)cc1)c1ccc(OS(C)(=O)=O)cc1	148 to 149
COc1ccc(S(=O)(=O)C2(C(=O)NO)CCN(C)CC2)cc1	89
Cc1cnc(N2CCNCC2)c2ccoc12	112
CC(C)C(NC(=O)OCc1ccccc1)C(=O)NC(Cc1ccccc1)C(O)C(O)C(Cc1ccccc1)NC(=O)C(NC(=O)OCc1ccccc1)C(C)C (stereo not drawn)	231 to 232
CCOC(=O)c1cn(Cc2ccc(OCc3ccccc3)cc2)nc1OCc1ccc(OCc2ccccc2)cc1	124 to 125
CC(C)(C)OC(=O)COc1coc(CN2CCCC2)cc1=O	93 to 94

SMILES	melting point [°C]
O=C(O)c1cncn1C(c1ccccc1)c1ccccc1	216
CCCC(=N)Nc1ccccc1N1CCOCC1	131
COc1ccc2ccc(O)c(C=O)c2c1	126
O=C(Nc1cccc2c1C(=O)c1c-2n[nH]c1-c1ccc(N2CCC(N3CCCCC3)CC2)cc1)NN1CCOCC1	233
O=C(O)c1cn(Cc2cnsn2)c2nc(Cl)c(F)cc2c1=O	231 to 232
CCc1cc(CCN2C(=O)c3ccccc3C2=O)c(OC)nc1C	77 to 79
NS(=O)(=O)c1cc2c(cc1Cl)C(=O)N(Cc1ccccn1)C2=O	240 to 242
CC(=O)NC(C(=O)NCc1ccccc1)c1cn(S(=O)(=O)N(C)C)cn1 (stereo not drawn)	145 to 147
CSc1c(O[C@H]2CC[C@H](N)CC2)ccc2[nH]ncc12	138 to 140
O=C(C1CCCC1)N1c2ccccc2CCC1CN1CCN(c2cccc3[nH]ccc23)CC1 (stereo not drawn)	150 to 153
COc1ccc(-c2nc3cc(C(N)=O)ccc3[nH]2)c2ccc(C(F)(F)F)nc12	205 to 207
CC1(C)OC(=O)C(OC2CCCCC2)=C1c1ccc(S(C)(=O)=O)cc1	143 to 144
CCC(=O)N1N=C(c2ccc([N+](=O)[O-])c(C)c2)c2cc3c(cc2CC1(C)C#N)OCO3 (stereo not drawn)	191 to 193
Cc1cn(-c2cccc(C(=O)CC(=O)Nc3cc(-c4ccccc4F)ccc3NC(=O)OC(C)(C)C)c2)c(C)n1	145
O=C1Nc2ccccc2S(=O)c2ccccc21 (stereo not drawn)	308 to 310
CCCCN1CCCC1=NC(=O)Nc1cccc(Cl)c1	94 to 96
Cc1ccc(OCc2ccccc2)c(C(=O)O)c1C(=O)O	200 to 203
COc1c(Cl)cc2c(N)nc(N3CCN(C(=O)C4CCCO4)CC3)nc2c1OC (stereo not drawn)	192 to 193
CC(=O)N1C(=O)OC[C@@H]1Cc1ccccc1	106
CC(C)(C)OC(=O)N[C@@H](Cc1ccccn1)C(=O)NCC(=O)c1ccc(-c2ccccc2)cc1	129 to 132
Cc1oc2c(C)c(C)c(OCc3ccccc3)c(C)c2c1CN1CCC[C@H]1CO	98 to 100
O=c1cc(N2CCOCC2)nc2n1CC[C@@H](C(F)(F)F)N2	108
Nc1ncccc1-c1nc2cc(-c3cccnc3)cnc2n1-c1ccc(CNS(=O)(=O)c2ccccc2)cc1	217 to 219
CC(C)(C(=O)O)c1ccc(C(=O)CCCN2CCC(OC(c3ccccc3)c3ccccc3)CC2)cc1	93 to 95
CCCc1nc2c(N)nc3cc(OCCCNC(=O)NS(=O)(=O)c4ccc(F)cc4)ccc3c2n1CC(C)C	194 to 198

SMILES	melting point [°C]
CCCCS(=O)(=O)NC1Cc2ccc(C3=NNC(=O)CC3)cc2C1 (single isomer, unassigned; (+))	173 to 174
CC/C=C/c1nc(Cl)c(C=O)n1Cc1ccc(-c2ccccc2C(=O)O)cc1	164 to 166
CCOC(=O)C(N)c1ccc(C(C)=O)cc1 (stereo not drawn)	77 to 78
COc1ccc(N2CCN(c3c(C)c(C)c4c(c3C)CC3(CCCC3)O4)CC2)cc1	137 to 139
COc1cc2cc(CO)c(CO)c(-c3ccnc(Nc4ccccc4CCCO)c3)c2cc1OC	156 to 158
CC(C)(C)Nc1c(NCc2ccc(F)cc2)c(=O)c1=O	296 to 298
N#Cc1cccc(C(=O)N[C@H]2C[C@H](C(=O)O)Nc3cc(Cl)cc(Cl)c32)c1 (relative stereo)	229 to 231
Cc1nnc2ccc(-c3cccc(N4CCCCC4=O)c3)nn12	204 to 207
COc1cccc(C(O)(Cc2ccncc2)c2cccc(OC)c2)c1	134 to 135
COc1ccc2cc3c(c(-c4ccc5c(c4)OCO5)c2c1OC)CNC3=O	255 to 256
CCOc1cc(C(CS(C)(=O)=O)N2Cc3cccc(NC(=O)C4CC4)c3C2=O)ccc1OC(F)F (stereo not drawn)	115 to 117
CC1(C)CCC(C)(C)c2cc(OCc3ccc(C(=O)O)cc3)ccc21	> 330
CC(C)c1c(S(=O)(=O)c2ccc(O)cc2)c2ccccn2c1C#N	232
COc1ccc(Nc2c([N+](=O)[O-])ccc(Cl)c2C(=O)O)cc1Cl	222 to 228
CCOC(=O)C(Cl)=Cc1cc(NC(=O)CC(C)CC(=O)O)ccc1Cl (stereo not drawn)	82 to 84
NS(=O)(=O)c1cc(C(=O)OCC(=O)N2CCC(CO[N+](=O)[O-])CC2)c(NCc2ccco2)cc1Cl	115 to 117
OCC1OC(n2cnc3c(NCC(c4ccccc4)c4ccc(Cl)cc4)ncnc32)C(O)C1O (stereo not drawn)	89 to 95
CC(=O)Oc1ccc(Cl)cc1C(=O)O	146 to 148
Cc1ccc(-n2c(N)nc3ccccc32)cc1-c1ccco1	155 to 157
O=C1C=C(O)CC(c2cc(C3CCOC3)no2)C1 (stereo not drawn)	142 to 144
Cc1cccc(C2=CCN(c3ccc(Cl)nn3)CC2)c1	122
Cc1nc2nc(SCc3ccccc3)nn2c(O)c1Cl	258 to 260
Cc1ccc(S(=O)(=O)N(C)c2ccc(Cl)cc2C(N)=O)cc1	176 to 178
Cc1ccc(NC(=O)C(C)(C)C)c(-c2cccc(Br)n2)c1	120 to 126
Cc1cc([N+](=O)[O-])c(Cl)c([N+](=O)[O-])c1S(N)(=O)=O	205 to 215

SMILES	melting point [°C]
CCn1cc(C(=O)O)c(=O)c2cc(F)c(N3CCN(C(=O)OC(OC(=O)C(C)c4ccc(CC(C)C)cc4)C(=O)OC(C)C)CC3)cc21 (stereo not drawn)	88 to 96.5
Cn1cc(CO)c(=O)c2ccc(F)cc21	219 to 222
Cn1c(=O)[nH]c2nc(C(F)(F)F)n(Cc3ccccc3)c2c1=O	211 to 213
CN1C(=O)C(NC(=O)Nc2cccc(Br)c2)N(C)C1=O (stereo not drawn)	173 to 182
NC1(C(=O)O)C=CC(Br)=C(F)C1 (stereo not drawn)	180
COC(=S)c1nc(Br)nc(C)c1Cl	105 to 106
CNC(=O)CN1CCc2cc(Nc3ncc(Cl)c(N[C@@H]4CCCC[C@H]4NS(C)(=O)=O)n3)c(OC)cc2CC1	92 to 104
Cn1cc(C2=C(c3ccccc3OCC3COC(C)(C)O3)C(=O)NC2=O)c2ccccc21 (racemic)	221
C=CCCCSC1NN=C(c2ccncc2)N1c1ccccc1 (stereo not drawn)	132 to 133
O=C1CCCc2[nH]c3ccc(OCc4ccccc4)cc3c21	235 to 237
CC(=O)SCCC(=O)N1N=C(c2ccccc2)CC1C(=O)O (stereo not drawn)	137 to 139
O=C(O)c1c(Cc2cc3c(cc2Cl)OCO3)c(-c2ccccn2)nn1CC1CCC(C(=O)O)CC1 (stereo not drawn)	261
O=C(O)C(Sc1nc2cc(Cl)ccc2s1)c1ccccc1 (stereo not drawn)	190 to 192
CCOC(=O)c1cccc(-c2nc(-c3cc(C)oc3C)cs2)c1	100 to 101
Cc1cccc(NC(=O)c2ccccc2CN2C(=O)C3(COc4cc5c(cc43)CCO5)c3ccccc32)c1 (stereo not drawn)	229 to 231
NC(=O)c1cn(Cc2ccccc2F)cn1	204 to 205
COC(=O)Nc1ccc(Cl)c(F)c1I	137 to 139
CCSc1cc(C)nc(SCC)c1NC(=O)CSc1nc2cccc(C(=O)OC)c2o1	168 to 169
NNc1cc(=O)[nH]c(N)n1	314 to 315
CC1(C)CC(=O)C2=C(C1)NC1=C(C(=O)CC(C)(C)C1)C2c1c(F)cc(F)cc1F	> 300
O=C(Nc1cccc(C(F)(F)F)c1)c1ccccc1NCc1ccc(=O)[nH]c1	171 to 172
Cc1cc2c(c(-c3cccc(Cl)c3)c1)OC(CN)C2 (stereo not drawn)	90 to 93
N#CCc1cc(O)cc2cc(-c3ccc(O)cc3)oc12	128 to 130
